Patent EP0624315B1, “Diaryl(pyridinio and isoquinolinio) boron fungicidal agents” (AMERICAN CYANAMID COMPANY, priority 1993, dated 1994)

Tests used:
[1] = tested on: Botrytis cinerea; test: In vivo fungicidal evaluation, Pepper Botrytis; details: 200 ppm, host plants sprayed, dried, then inoculated; note: ranges in brackets are in %
[2] = tested on: Cercospora beticola; test: In vivo fungicidal evaluation, Sugar Beet Cercospora; details: 200 ppm, host plants sprayed, dried, then inoculated; note: ranges in brackets are in %
[3] = tested on: Alternaria solani; test: In vivo fungicidal evaluation, Tomato Early Blight; details: 200 ppm, host plants sprayed, dried, then inoculated; note: ranges in brackets are in %
[4] = tested on: Venturia inaequalis; test: In vivo fungicidal evaluation, Apple Scab; details: 200 ppm, host plants sprayed, dried, then inoculated; note: ranges in brackets are in %
[5] = tested on: Pyricularia oryzae; assay type: in vivo; details: 200 ppm, host plants sprayed, dried, then inoculated
[6] = tested on: Plasmopara viticola; test: In vivo fungicidal evaluation, Grape Downy Mildew; details: 200 ppm, host plants sprayed, dried, then inoculated; note: ranges in brackets are in %
[7] = tested on: Pseudocercosporella herpotrichoides (Psdche); test: In vitro fungicidal evaluation, mycelial growth inhibition in nutrient broth; assay type: cell-based; details: 25 ppm, 3-4 days at 21°C, rated visually; note: ranges in brackets are in %
Procedure: (§1) Test compounds are dissolved or suspended in acetone and dispersed into cell well plates containing a suspension of ground fungal mycelia in a nutrient broth. Assay plates are incubated for 3-4 days at 21°C. Growth inhibition is measured visually and is rated using the following scale:
(§2) Untreated controls, solvent blanks and reference standards are included in each test.
(§3) Assay fungi include the plant pathogens, Pythium ultimum (Pythul); Rhizoctonia solani (Rhizso); Fusarium oxysporum f. sp. cucumerinum (Fusoxc); and Pseudocercosporella herpotrichoides (Psdche).
(§4) When more than one test is run, the data are averaged. The compouds evaluated are reported by compound number given in Example 5.

[8] = tested on: Rhizoctonia solani (Rhizso); test: as above; assay type: cell-based; details: 25 ppm, 3-4 days at 21°C, rated visually; note: ranges in brackets are in %
Procedure: as §1, §2, §3, §4

[9] = tested on: Fusarium oxysporum f. sp. cucumerinum (Fusoxc); test: as above; assay type: cell-based; details: 25 ppm, 3-4 days at 21°C, rated visually; note: ranges in brackets are in %
Procedure: as §1, §2, §3, §4

[10] = tested on: Pythium ultimum (Pythul); test: as above; assay type: cell-based; details: 25 ppm, 3-4 days at 21°C, rated visually; note: ranges in brackets are in %
Procedure: as §1, §2, §3, §4

[11] = tested on: Erysiphe graminis f. sp. tritici; test: In vivo fungicidal evaluation, Wheat Powdery Mildew; details: 200 ppm, host plants sprayed, dried, then inoculated; note: ranges in brackets are in %
[12] = tested on: Puccinia recondita f. sp. tritici; test: In vivo fungicidal evaluation, Wheat Leaf Rust; details: 200 ppm, host plants sprayed, dried, then inoculated; note: ranges in brackets are in %

Row | Molecule | PB (Pepper Botrytis) disease control rating [1] | SBC (Sugar Beet Cercospora) disease control rating [2] | TEB (Tomato Early Blight) disease control rating [3] | AS (Apple Scab) disease control rating [4] | RB (Rice Blast) disease control rating [5] | GDM (Grape Downy Mildew) disease control rating [6] | PSDCHE growth inhibition rating [7] | RHIZSO growth inhibition rating [8] | FUSOXC growth inhibition rating [9] | PHTHUL growth inhibition rating [10] | WPM (Wheat Powdery Mildew) disease control rating [11] | WLR (Wheat Leaf Rust) disease control rating [12]
1 | C[B-](c1ccccc1)(c1ccccc1)[n+]1ccc(-c2ccccc2)cc1 [Compound 17, (4-Phenylpyridinio)methyldiphenylboron] | 9 (100) | 8 (96 - 99) | 9 (100) | 9 (100) | 8 (96 - 99) | 9 (100) | 7 (90 - 99) | 5 (60 - 89) | 7 (90 - 99) | 0 (0) | 8 (96 - 99) | 
2 | CC(=O)c1cc[n+]([B-](C)(c2ccccc2)c2ccccc2)cc1 [Compound 19, (4-Acetylpyridinio)methyldiphenylboron] | 9 (100) | 9 (100) | 8 (96 - 99) | 9 (100) | 8 (96 - 99) | 9 (100) | 9 (100) | 7 (90 - 99) | 7 (90 - 99) | 7 (90 - 99) | 8 (96 - 99) | 
3 | C[B-](c1ccccc1)(c1ccccc1)[n+]1ccc(C(C)(C)C)cc1 [Compound 20, (4-Tert-butyl-pyridinio)methyldiphenylboron] | 9 (100) | 9 (100) | 8 (96 - 99) | 9 (100) | 8 (96 - 99) | 9 (100) | 7 (90 - 99) | 7 (90 - 99) | 7 (90 - 99) | 7 (90 - 99) | 7 (90 - 95) | 
4 | (3-Butylpyridinio)methyldiphenylboron [Compound 3] | 6 (75 - 89) | 0 (0) | 8 (96 - 99) | 9 (100) | 0 (0) | 9 (100) | 9 (100) | 9 (100) | 9 (100) | 9 (100) | 8 (96 - 99) | 8 (96 - 99)
5 | (4-Cyanopyridinio)methyldiphenylboron [Compound 16] | 8 (96 - 99) | 8 (96 - 99) | 8 (96 - 99) | 9 (100) | 9 (100) | 9 (100) | 9 (100) | 7 (90 - 99) | 7 (90 - 99) | 7 (90 - 99) | 0 (0) | 
6 | (5,6,7,8-Tetrahydroisoquinolinio)methyldiphenylboron [Compound 4] | 9 (100) | 8 (96 - 99) | 6 (75 - 89) | 9 (100) | 0 (0) | 9 (100) | 9 (100) | 9 (100) | 9 (100) | 7 (90 - 99) | 8 (96 - 99) | 9 (100)
